Measured values: patent EP4512427A1, “ANTIBODY-DRUG CONJUGATES BASED ON MOLECULAR GLUE DEGRADERS AND USES THEREOF” (Mablink Bioscience, priority 2023, dated 2025)

Experiments:
CDK13/CycK = target: T1, CDK13/CycK (Homo sapiens, UniProt Q14004); assay: IC50 profiling on top 25 protein kinases; type: biochemical; settings: titration from 0.1 nM to 10 000 nM
T1 construct: GST-fusion or His-tag (not given for this kinase); purchased Reaction Biology, Germany; host or cells: Sf9 insect cells or E.coli
Experimental: (§1) Compound 2384 according to the disclosure was subjected to kinase screening assays (performed at Reaction Biology, Germany). […] A radiometric protein kinase assay (33PanQinase® ActivityAssay) was used for measuring the kinase activity of 340 protein kinases. All kinase assays were performed in 96-well FlashPlates™ from Perkin Elmer (Boston, MA, USA) in a 50 µL reaction volume. […] All PKC assays (except the PKC-mu and the PKC-nu assay) additionally contained 1 mM CaCl2, 4 mM EDTA, 5 µg/m! Phosphatidylserine and 1 µg/m! 1,2-Dioleyl-glycerol. The CAMK1D, CAMK2A, CAMK2B, CAMK2D, CAMK2G, CAMK4, CAMKK1, CAMKK2, DAPK2, EEF2K, MYLK, MYLK2 and MYLK3 assays additionally contained 1 µg/ml Calmodulin and 0.5 mM CaCl2. The PRKG1 and PRKG2 assays additionally contained 1 µM cGMP. The DNA-PK assay additionally contained 2.5 µg/ml DNA. The protein kinase reaction cocktails were incubated at 30°C for 60 minutes. The reaction was stopped with 50 µl of 2 % (v/v) H3PO4, plates were aspirated and washed two times with 200 µL 0.9 % (w/v) NaCl. Incorporation of 33Pi (counting of "cpm") was determined with a microplate scintillation counter (Microbeta, Wallac). All protein kinase assays were performed with a BeckmanCoulter Biomek 2000/SL robotic system. All protein kinases provided by RBE were expressed in Sf9 insect cells or in E.coli as recombinant GST-fusion proteins or His-tagged proteins, either as full-length or enzymatically active fragments. All kinases were produced from human cDNAs and purified by either GSH-affinity chromatography or immobilized metal. Affinity tags were removed from a number of kinases during purification. The purity of the protein kinases was examined by SDS-PAGE/Coomassie staining, the identity was checked by mass spectroscopy. Kinases from external vendors were expressed, purified and quality-controlled. Staurosporine was used as positive control.
(§2) Staurosporine was used as positive control.

CDK9/CycK = target: T2, CDK9/CycK (Homo sapiens, UniProt P50750); assay: IC50 profiling on top 25 protein kinases; type: biochemical; settings: titration from 0.1 nM to 10 000 nM
T2 construct: GST-fusion or His-tag (not given for this kinase); purchased Reaction Biology, Germany; host or cells: Sf9 insect cells or E.coli
Experimental: as §1, §2

CDK12/CycK = target: T3, CDK12/CycK (Homo sapiens, UniProt Q9NYV4); assay: IC50 profiling on top 25 protein kinases; type: biochemical; settings: titration from 0.1 nM to 10 000 nM
T3 construct: GST-fusion or His-tag (not given for this kinase); purchased Reaction Biology, Germany; host or cells: Sf9 insect cells or E.coli
Experimental: as §1, §2

CDK9/CycT1 = target: T4, CDK9/CycT1 (Homo sapiens, UniProt P50750); assay: IC50 profiling on top 25 protein kinases; type: biochemical; settings: titration from 0.1 nM to 10 000 nM
T4 construct: GST-fusion or His-tag (not given for this kinase); purchased Reaction Biology, Germany; host or cells: Sf9 insect cells or E.coli
Experimental: as §1, §2

MDR1 = target: T5, MDR1 (Homo sapiens, UniProt P08183); assay: MDR1 efflux substrate assay in MDCK-MDR1; type: in vitro ADME; settings: dog, MDCK-MDR1, 5µM, 60 min, pH 7.4
T5 construct: host or cells: MDCK-MDR1 (Preadyport)
Experimental: MDR1 and BCRP efflux substrate assays were conducted in MDCK-MDR1 and MDCK-BCRP in vitro models (Preadyport™, Solvo Biotech) at Symeres (Nederland). Compound of the invention (donor well concentration of 5µM) were incubated in cell monolayer 24-transwell Preadyport system, using Preadyport recommended pH 7.4 assay buffer (donor and receiver wells). After 60 min of incubation (no shaking), samples are collected and suspended into triple volume of 66% cold acetonitrile. Samples are stored at -20°C until thawed, centrifuged and analyzed by LC-MS. Quinidine was used a positive control for the MDR1 assay, and prazosin was used as a positive control for the BCRP assay. Exatecan was used as a control, known not to be an MDR1 substrate. Residual DMSO content from compounds stock solutions was below 1% (v/v). The assay was performed in duplicate. The quantification of test compounds in donor or receptor compartment is conducted using relative LC/MS peak areas (samples of initial incubation solutions are used as a single point calibrator), without any spiked standard samples. The data is used for estimating apparent permeability (Papp) and calculation of efflux ratio.

JIMT-1 cells = assay: Cell cycle arrest assessment (propidium iodide); type: cell-based, human; settings: 24h at 2, 5, 10, and 50nM
Experimental: 1×10^6 JIMT-1 cells were plated in 3mL of DMEM/FBS 90:10 (v/v) in 6-well plates and incubated overnight. Cells were treated with the compound 2384 of the invention or with CR8 for 24h. Cells were then harvested and washed three times with PBS. Cells were suspended into 300µL of propidium iodide working solution (0.05mg/mL) and incubated for 45 minutes at 4°C in the dark. Analysis was performed using a BD Fortessa flow cytometer controlled by BD FACSDiva software (BD Biosciences) and data were analyzed using FlowJo software (BD Bioscience).

JIMT-1 = assay: In vitro cytotoxicity assay (MTT); type: cell-based, human; settings: Homo sapiens, 144 h, 6 days incubation
Outline: (§3)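 MTT read-out, A570/A690 after acidified-isopropanol solubilisation. Seeding 1000–10 000 cells/well, 24 h settle, serial dilutions, 6 d exposure at 37°C, MTT 1–4 h. IC50 vs untreated control by inhibition curve fit.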

BT-474 = assay: In vitro cytotoxicity assay (MTT); type: cell-based, human; settings: Homo sapiens, BT-474, 144 h
Outline: as §3

MDA-MB-453 = assay: In vitro cytotoxicity assay (MTT); type: cell-based, human; settings: Homo sapiens, 144 h, 6 days incubation
Outline: as §3

SKBR-3 = assay: In vitro cytotoxicity assay (MTT); type: cell-based, human; settings: Homo sapiens, SK-BR-3, 144 h, 6 days incubation
Outline: as §3

MDA-MB-231 = assay: In vitro cytotoxicity assay (MTT); type: cell-based, human; settings: Homo sapiens, 144 h, 6 days incubation
Outline: as §3

NCI-N87 = assay: In vitro cytotoxicity assay (MTT); type: cell-based, human; settings: Homo sapiens, 144 h, 6 days incubation
Outline: as §3

T5 sequence (P08183 whole entry): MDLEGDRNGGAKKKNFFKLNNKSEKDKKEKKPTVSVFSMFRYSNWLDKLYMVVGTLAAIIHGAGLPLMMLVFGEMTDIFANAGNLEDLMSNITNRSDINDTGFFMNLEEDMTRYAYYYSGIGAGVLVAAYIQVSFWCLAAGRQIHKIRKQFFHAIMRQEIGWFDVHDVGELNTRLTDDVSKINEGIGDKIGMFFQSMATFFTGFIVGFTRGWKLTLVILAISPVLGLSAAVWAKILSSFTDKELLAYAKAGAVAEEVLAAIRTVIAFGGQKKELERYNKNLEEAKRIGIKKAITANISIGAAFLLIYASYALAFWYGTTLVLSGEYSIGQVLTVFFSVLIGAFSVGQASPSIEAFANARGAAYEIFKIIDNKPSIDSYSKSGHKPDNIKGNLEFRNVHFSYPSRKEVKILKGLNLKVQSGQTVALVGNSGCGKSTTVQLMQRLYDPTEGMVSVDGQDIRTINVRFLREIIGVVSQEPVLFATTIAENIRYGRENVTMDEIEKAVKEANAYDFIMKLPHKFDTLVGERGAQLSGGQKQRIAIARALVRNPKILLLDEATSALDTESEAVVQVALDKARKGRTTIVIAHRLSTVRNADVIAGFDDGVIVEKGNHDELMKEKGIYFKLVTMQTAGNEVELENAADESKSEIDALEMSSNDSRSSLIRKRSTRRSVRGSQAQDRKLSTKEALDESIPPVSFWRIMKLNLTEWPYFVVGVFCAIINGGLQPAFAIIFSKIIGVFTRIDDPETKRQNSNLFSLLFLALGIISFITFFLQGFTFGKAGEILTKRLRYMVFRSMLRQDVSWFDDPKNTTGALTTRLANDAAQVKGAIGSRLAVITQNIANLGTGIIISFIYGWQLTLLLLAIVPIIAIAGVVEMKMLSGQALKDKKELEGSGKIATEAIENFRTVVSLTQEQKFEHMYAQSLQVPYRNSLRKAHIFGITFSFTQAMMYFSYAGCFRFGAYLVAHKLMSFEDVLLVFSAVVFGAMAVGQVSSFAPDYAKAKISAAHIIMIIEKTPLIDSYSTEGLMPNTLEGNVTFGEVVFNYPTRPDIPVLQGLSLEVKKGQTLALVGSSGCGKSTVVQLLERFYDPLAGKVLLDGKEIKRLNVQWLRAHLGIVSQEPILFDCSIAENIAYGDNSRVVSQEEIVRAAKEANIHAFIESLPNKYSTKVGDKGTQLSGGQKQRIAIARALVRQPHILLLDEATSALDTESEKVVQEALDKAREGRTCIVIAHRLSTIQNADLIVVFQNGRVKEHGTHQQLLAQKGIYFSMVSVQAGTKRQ
T2 sequence (P50750 whole entry, the tested form may be a part): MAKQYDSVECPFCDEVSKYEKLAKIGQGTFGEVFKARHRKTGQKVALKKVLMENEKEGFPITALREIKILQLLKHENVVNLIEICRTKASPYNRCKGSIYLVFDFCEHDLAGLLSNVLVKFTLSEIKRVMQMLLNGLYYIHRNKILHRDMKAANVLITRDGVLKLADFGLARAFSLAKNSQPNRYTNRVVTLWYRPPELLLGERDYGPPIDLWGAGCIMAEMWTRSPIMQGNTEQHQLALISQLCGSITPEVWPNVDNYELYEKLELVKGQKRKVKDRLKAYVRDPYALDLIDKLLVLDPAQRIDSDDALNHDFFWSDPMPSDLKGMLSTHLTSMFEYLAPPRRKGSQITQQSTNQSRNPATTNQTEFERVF
T2 sequence (O75909 whole entry partner, the tested form may be a part): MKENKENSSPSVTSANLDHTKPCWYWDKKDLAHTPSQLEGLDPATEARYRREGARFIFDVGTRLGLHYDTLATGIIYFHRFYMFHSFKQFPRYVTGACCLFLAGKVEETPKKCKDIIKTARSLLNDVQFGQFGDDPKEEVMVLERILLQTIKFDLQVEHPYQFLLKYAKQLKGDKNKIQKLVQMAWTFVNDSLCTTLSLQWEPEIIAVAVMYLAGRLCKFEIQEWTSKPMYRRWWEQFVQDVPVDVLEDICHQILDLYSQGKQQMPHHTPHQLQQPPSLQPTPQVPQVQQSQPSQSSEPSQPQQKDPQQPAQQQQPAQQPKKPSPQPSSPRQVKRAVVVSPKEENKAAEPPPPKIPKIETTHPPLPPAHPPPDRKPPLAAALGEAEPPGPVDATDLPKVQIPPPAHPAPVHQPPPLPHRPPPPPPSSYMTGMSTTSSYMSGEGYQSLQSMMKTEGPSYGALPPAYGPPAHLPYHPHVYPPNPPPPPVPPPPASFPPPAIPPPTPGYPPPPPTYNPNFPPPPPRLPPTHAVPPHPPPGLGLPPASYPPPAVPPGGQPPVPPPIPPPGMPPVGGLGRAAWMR
T4 sequence (P50750 whole entry, the tested form may be a part): as the sequence (P50750 whole entry, the tested form may be a part) above
T4 sequence (O60563 whole entry partner, the tested form may be a part): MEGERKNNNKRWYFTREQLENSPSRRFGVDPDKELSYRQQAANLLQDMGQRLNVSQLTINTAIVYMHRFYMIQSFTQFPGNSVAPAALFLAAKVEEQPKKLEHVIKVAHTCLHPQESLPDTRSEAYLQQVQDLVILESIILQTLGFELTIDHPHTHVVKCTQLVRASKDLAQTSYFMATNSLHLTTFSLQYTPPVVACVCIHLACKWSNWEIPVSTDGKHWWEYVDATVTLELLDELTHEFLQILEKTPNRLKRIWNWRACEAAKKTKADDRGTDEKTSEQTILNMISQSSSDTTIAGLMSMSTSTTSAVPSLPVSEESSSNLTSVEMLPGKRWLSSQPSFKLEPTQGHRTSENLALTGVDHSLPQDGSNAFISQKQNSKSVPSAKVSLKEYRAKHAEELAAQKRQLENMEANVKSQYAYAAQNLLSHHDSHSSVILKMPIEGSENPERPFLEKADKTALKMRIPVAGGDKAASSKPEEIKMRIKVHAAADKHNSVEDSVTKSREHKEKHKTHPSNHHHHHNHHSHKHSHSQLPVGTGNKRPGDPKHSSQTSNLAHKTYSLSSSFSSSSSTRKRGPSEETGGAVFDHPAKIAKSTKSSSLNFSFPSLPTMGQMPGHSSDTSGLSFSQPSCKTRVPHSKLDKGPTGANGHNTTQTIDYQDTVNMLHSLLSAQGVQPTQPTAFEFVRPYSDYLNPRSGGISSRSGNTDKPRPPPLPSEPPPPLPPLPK
T1 sequence (Q14004 whole entry, the tested form may be a part): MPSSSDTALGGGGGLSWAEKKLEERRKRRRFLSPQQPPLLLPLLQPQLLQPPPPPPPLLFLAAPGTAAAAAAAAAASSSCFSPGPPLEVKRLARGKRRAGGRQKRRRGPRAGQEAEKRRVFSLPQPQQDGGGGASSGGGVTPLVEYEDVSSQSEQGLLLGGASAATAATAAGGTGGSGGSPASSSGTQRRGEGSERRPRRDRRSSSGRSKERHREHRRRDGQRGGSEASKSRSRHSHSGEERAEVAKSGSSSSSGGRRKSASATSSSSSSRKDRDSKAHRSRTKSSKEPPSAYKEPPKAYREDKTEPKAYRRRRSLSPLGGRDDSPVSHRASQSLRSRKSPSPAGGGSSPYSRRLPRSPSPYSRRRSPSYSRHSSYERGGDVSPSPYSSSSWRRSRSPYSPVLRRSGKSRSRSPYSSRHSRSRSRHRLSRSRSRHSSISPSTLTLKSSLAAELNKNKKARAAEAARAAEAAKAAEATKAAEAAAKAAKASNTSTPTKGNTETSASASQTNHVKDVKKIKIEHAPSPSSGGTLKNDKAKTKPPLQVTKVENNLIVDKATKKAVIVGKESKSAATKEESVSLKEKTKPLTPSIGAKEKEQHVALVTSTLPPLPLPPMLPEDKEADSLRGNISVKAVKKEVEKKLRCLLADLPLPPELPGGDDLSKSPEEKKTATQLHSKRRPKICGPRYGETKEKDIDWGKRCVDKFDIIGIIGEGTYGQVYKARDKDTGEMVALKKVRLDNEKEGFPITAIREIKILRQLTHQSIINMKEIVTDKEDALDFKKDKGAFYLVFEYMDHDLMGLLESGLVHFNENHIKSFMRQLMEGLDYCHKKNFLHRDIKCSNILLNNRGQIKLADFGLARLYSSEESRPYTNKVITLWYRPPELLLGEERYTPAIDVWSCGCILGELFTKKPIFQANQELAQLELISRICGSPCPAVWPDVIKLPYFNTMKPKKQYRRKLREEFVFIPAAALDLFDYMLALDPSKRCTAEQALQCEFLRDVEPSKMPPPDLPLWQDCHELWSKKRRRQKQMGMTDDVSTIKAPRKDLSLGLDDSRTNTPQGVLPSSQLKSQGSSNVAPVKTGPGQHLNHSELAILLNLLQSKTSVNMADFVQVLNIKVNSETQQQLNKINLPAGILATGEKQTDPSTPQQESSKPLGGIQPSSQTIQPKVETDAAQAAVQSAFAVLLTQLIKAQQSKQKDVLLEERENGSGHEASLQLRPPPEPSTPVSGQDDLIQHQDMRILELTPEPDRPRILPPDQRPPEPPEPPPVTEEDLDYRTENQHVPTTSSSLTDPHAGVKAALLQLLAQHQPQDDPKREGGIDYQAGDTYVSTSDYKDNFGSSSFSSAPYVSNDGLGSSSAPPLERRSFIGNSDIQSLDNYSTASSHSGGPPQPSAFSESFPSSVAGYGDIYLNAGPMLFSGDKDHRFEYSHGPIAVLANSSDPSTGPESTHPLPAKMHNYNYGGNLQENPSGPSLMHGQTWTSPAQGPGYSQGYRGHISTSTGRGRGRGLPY
T1 sequence (O75909 whole entry partner, the tested form may be a part): as the sequence (O75909 whole entry partner, the tested form may be a part) above

Question: `N[C@H]1CC[C@H](Nc2nc(NCc3ccc(-c4ccccn4)cc3)n3ncc(Br)c3n2)CC1` [Compound 2384] was tested. Which IC50 (CDK13/CycK) did it give?
Answer: Its IC50 is less than 25 nM.

Question: And the IC50 (CDK9/CycK)?
Answer: Its IC50 is less than 25 nM.

Question: What about the IC50 (CDK12/CycK) of the same compound?
Answer: The IC50 was less than 25 nM.

Question: And the IC50 (CDK9/CycT1)?
Answer: Its IC50 is less than 25 nM.

Question: What about the Papp A→B at 1 h, 5 µM (MDR1; read-out: Papp A (donor) to B (acceptor)) of the same compound?
Answer: The Papp A→B at 1 h, 5 µM was less than 0.25 ×10⁻⁶ cm/s.

Question: What about the Papp B→A at 1 h, 5 µM (MDR1; read-out: Papp B (acceptor) to A (donor)) of the same compound?
Answer: Its Papp B→A at 1 h, 5 µM is 36.9 ×10⁻⁶ cm/s.

Question: What about the cell cycle analysis (JIMT-1 cells) of the same compound?
Answer: Its cell cycle analysis is “arrest in the G2/M phase”.

Question: And the IC50 (JIMT-1)?
Answer: Its IC50 is 0.25 nM.

Question: And the IC50 (BT-474)?
Answer: Its IC50 is 0.94 nM.

Question: What about the IC50 (MDA-MB-453) of the same compound?
Answer: The IC50 was 0.53 nM.

Question: What about the IC50 (SKBR-3) of the same compound?
Answer: The IC50 was 0.73 nM.

Question: What about the IC50 (MDA-MB-231) of the same compound?
Answer: Its IC50 is 0.38 nM.

Question: What about the IC50 (NCI-N87) of the same compound?
Answer: The IC50 was 0.76 nM.
